This is an account of results in patent US9757327B2, “Abutilon indicum extracts and methods of use” (Avon Products, Inc., priority 2013, dated 2017).

This experiment deals with dorsal forearm skin of healthy female Caucasian subjects. The experiment can be described thus: In vivo biopsy (histology after 3 week patch treatment). Also noted: species or system human. To be noted: 3 weeks semi-occlusion patch, 2 mg/cm^2, extract 0.33% active, retinol 0.05% active. The procedure:
Healthy female Caucasian subjects aged 30-65, with skin type II or III and mild to moderate photo damage, were treated on the dorsal forearm for 3 weeks (3 consecutive rounds of 5×24 hour) under semi-occlusion patches. Test articles including active ingredients, vehicle controls, and retinol were applied in a randomized allocation on 6 sites on each forearm. The application dose was 2 mg/cm^2. After 3 week treatment, a 2 mm punch biopsy was obtained from each treatment site and fixed in 10% buffered formalin. Tissue samples then embedded in paraffin, sectioned (5 μm thickness), and stained for skin markers after re-hydration. […] Retinol at a active concentration of 0.05% was used as a positive control. Retinol use at a 0.05% active concentration in the semi-occlusion patch vehicle formulation yielded a visual score of approximately 0.56 out of a 4 point scale in HE staining (measuring hematoxylin and eosin staining, an indication of viable epidermal thickness and health) with 63.6% of the subjects showing an improvement; a visual score of 0.6 out of a 4 point scale in M-TC staining (Masson's trichrome staining, assessing total mature fiber-forming collagen in the dermis—mainly Collagen I, […] and Collagen V) with 51.6% of the subjects showing an improvement; a visual score of 0.52 out of a 4 point scale for pro-Col (measuring new synthesis of Collagen I by skin fibroblasts in the dermis) with 51.6% of the subjects showing an improvement; and a visual score of 0.57 out of a 4 point scale for HA (measuring level of hyaluronic acid in both dermis and epidermis) with 50% of the subjects showing an improvement.

As to `CC1=C(/C=C/C(C)=C/C=C/C(C)=C/CO)C(C)(C)CCC1` [Retinol], the “subjects showing an improvement, HA” value is on record as 50 % of the subjects; the “subjects showing an improvement, HE staining” value was 63.6 % of the subjects; the “subjects showing an improvement, M-TC staining” value is recorded as 51.6 % of the subjects; the “subjects showing an improvement, pro-Col” value is recorded as 51.6 % of the subjects. For the same compound, for the setting “out of a 4 point scale”, the “visual score for HA (hyaluronic acid in dermis and epidermis)” value is recorded as 0.57; the “visual score for pro-Col (new synthesis of Collagen I)” value turned out to be 0.52; the “visual score in HE staining (viable epidermal thickness and health)” value is recorded as “approximately 0.56”; the “visual score in M-TC staining (total mature fiber-forming collagen in the dermis)” value is 0.6.
